Entries after “also recorded” stand apart in the source; their conditions may differ.
Experiments:
PEA1 cells = assay: Clonogenic (colony formation) assay in PEA1 cells; details: PEA1, BRCA1 siRNAs, colony formation 8-10 days (FIG. 4B, 14, 22B)
Method: OVCAR-8 (A) and PEA1 (B) cells were transfected with control luciferase (Luc) or BRCA1 siRNAs. 48 hours later, the cells were trypsinized, plated in 6-well plates, and subjected to colony formation assays. The indicated concentrations of ceritinib was added 12 hours after plating.

OVCAR-8 cells = assay: Clonogenic (colony formation) assay in OVCAR-8 cells; details: for Sensitivity of BRCA1-depleted cells to the agent versus control luciferase siRNA cells: OVCAR-8, BRCA1 siRNAs, colony formation 8-10 days (FIG. 4A, 14, 22A); for Sensitization to the agent by NNMT overexpression: OVCAR-8 clones stably expressing Myc-DDK-NNMT versus empty vector, 8-10 days (FIG. 16, 24)
Method: A portion of the cells used in A and C were subjected to colony formation assays using olaparib, a PARP inhibitor (as a positive control for HR deficiency).
(A-C) OVCAR-8 and PEA1 cells were transfected with control luciferase (siLuc) or BRCA1 siRNAs. 48 hours later, the cells were trypsinized, immunoblotted for BRCA1 and HSP90 (bottom panels), and subjected to colony formation assays.
The cells were cultured for 8-10 days to allow colony formation.

[1] = tested on: HCT-116 colon cancer cells; assay: Colony formation assay in HCT-116 colon cancer clones (empty vector or Myc-DDK-NNMT); type: cell-based; details: HCT-116 Myc-NNMT clones #4, #8, #22 versus empty vector, 8-10 days, n=1 (FIG. 26)
Method: Clones of HCT-116 colon cancer cells stably transfected with empty vector (pcDNA3) or the Myc-DDK-NNMT expression plasmid (Myc-NNMT Clone #4, #8, #22) were plated as single cells, allowed to adhere for 12 hours, and then treated with ceritinib. […] Data are means±SEM from triplicate wells, n=1 experiment.
Clonogenic assays were performed as described elsewhere (see, e.g., Wagner et al., Mol. Pharmacol., 76:208-14 (2009)).

SMILES | Sensitivity of BRCA1-depleted cells to the agent versus control luciferase siRNA cells (PEA1 cells) | Sensitivity of BRCA1-depleted cells to the agent versus control luciferase siRNA cells (OVCAR-8 cells) | Sensitization to the agent by NNMT overexpression (OVCAR-8 cells) | Sensitization to the agent by NNMT overexpression [1] | Sensitization to the agent by depletion of BRCA2 or RAD51 (OVCAR-8 cells; OVCAR-8, BRCA2 or RAD51 siRNAs (FIG. 12B, 12D, 15))
O=C(Oc1cccc(F)c1OC(=O)c1cccc(O)c1)c1cccc(O)c1 [WZB117] | sensitized | sensitized |  |  | 
Cc1cc(Nc2ncc(Cl)c(Nc3ccccc3S(=O)(=O)C(C)C)n2)c(OC(C)C)cc1C1CCNCC1 [ceritinib] | sensitizes | sensitizes | sensitizes | sensitizes | 
O=C(c1cc(Cc2n[nH]c(=O)c3ccccc23)ccc1F)N1CCN(C(=O)C2CC2)CC1 [olaparib] |  |  |  |  | increased sensitivity; also recorded: did sensitize
CN(C)c1cc(NC(=O)CNC(C)(C)C)c(O)c2c1C[C@H]1C[C@H]3[C@H](N(C)C)C(O)=C(C(N)=O)C(=O)[C@@]3(O)C(O)=C1C2=O [tigecycline] | sensitized | sensitized | sensitizes |  | 

— patent publication US20210386750A1, “METHODS AND MATERIALS FOR TREATING CANCER” (Mayo Foundation for Medical Education and Research, priority 2018, published 2021)
